Consider 8 molecules from patent US11814392B2, “Chromenopyridine-based compounds and methods of making and use thereof” (Rosalind Franklin University of Medicine and Science, priority 2020, dated 2023).

The assay concerns the target T1, PMCT (Homo sapiens, UniProt Q86YT5).
T1 construct: expressed in transfected cells; host or cells: HEK293T cells transfected with pcDNA3.1(+)-SLC13A5 using PEI
Kind of assay: PMCT inhibition, citrate transport assay of whole HEK293T cells. In kind it is cell-based. Conditions: for dose-dependence of PMCT inhibition / PMCT Inhibition: HEK293T cells; for dose-dependence of PMCT inhibition: even at moderate concentrations (FIG. 1); for inhibition at 2.8 µM / inhibition at 28 µM / inhibition at 140 µM / inhibition at 280 µM: HEK-293T; for inhibition at 2.8 µM: read-out: PMCT Inhibition, Inhibitor Concentration 2.8 μM, HEK293T cells; for inhibition at 28 µM: read-out: PMCT Inhibition, Inhibitor Concentration 28 μM, HEK293T cells; for inhibition at 140 µM: read-out: PMCT Inhibition, Inhibitor Concentration 140 μM, HEK293T cells; for inhibition at 280 µM: read-out: PMCT Inhibition, Inhibitor Concentration 280 μM, HEK293T cells; for PMCT Inhibition: Inhibitor Concentration 280 μM, 280 µM.

T1 sequence (Q86YT5 whole entry): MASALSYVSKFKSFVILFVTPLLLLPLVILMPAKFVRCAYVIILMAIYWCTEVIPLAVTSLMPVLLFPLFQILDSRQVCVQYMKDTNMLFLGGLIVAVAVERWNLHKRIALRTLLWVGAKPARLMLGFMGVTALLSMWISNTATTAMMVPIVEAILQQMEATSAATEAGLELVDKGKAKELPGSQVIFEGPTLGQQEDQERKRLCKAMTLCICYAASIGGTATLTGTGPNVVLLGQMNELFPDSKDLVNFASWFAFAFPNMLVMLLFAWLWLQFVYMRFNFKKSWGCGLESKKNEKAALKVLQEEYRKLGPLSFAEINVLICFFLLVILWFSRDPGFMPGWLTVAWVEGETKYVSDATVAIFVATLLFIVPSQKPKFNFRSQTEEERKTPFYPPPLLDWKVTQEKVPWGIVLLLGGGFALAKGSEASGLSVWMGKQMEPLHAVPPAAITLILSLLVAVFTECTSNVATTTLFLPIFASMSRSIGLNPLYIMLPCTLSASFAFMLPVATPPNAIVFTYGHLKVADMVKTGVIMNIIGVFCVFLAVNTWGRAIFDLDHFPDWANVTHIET

`COc1ccc(SC2c3c(OC)cc(OC)cc3Oc3nc(N)c(C#N)c(N)c32)cc1` (stereo not shown) [Compound 2, 2,4-diamino-6,8-dimethoxy-5-((4-methoxyphenyl)thio)-5H-chromeno[2,3-b]pyridine-3-carbonitrile]: the “dose-dependence of PMCT inhibition” value is given as “dose-dependent inhibition”, the inhibition at 2.8 µM amounted to 34.7%, the inhibition at 28 µM worked out at 24% and the inhibition at 140 µM amounted to 48.5%. The inhibition at 280 µM was determined as 50%.

As for `CSc1ccc(SC2c3ccc(O)cc3Oc3nc(N)c(C#N)c(N)c32)cc1` (stereo not shown) [Compound 3, 2,4-Diamino-8-hydroxy-5-((4-(methylthio)phenyl)thio)-5H-chromeno[2,3-b]pyridine-3-carbonitrile], the “dose-dependence of PMCT inhibition” value is “dose-dependent inhibition”, the inhibition at 2.8 µM was 6.2%, the inhibition at 28 µM came to 9.9% and the inhibition at 140 µM came to 28.6%. In addition, the inhibition at 280 µM stood at 58.7%.

On to `CCN(CC)c1ccc2c(c1)Oc1nc(N)c(C#N)c(N)c1C2Sc1ccc(OC)cc1` (stereo not shown) [Compound 4, 2,4-diamino-8-(diethylamino)-5-((4-methoxyphenyl)thio)-5H-chromeno[2,3-b]pyridine-3-carbonitrile], for which the inhibition at 2.8 µM is -23.2%, the inhibition at 28 µM was 28.6% and the inhibition at 280 µM is -8.7%.

Regarding `COc1ccc(SC2c3ccc(O)cc3Oc3nc(N)c(C#N)c(N)c32)cc1` (stereo not shown) [Compound 5, 2,4-Diamino-8-hydroxy-5-((4-methoxyphenyl)thio)-5H-chromeno[2,3-b]pyridine-3-carbonitrile], the inhibition at 2.8 µM was -12.8%, the inhibition at 28 µM is -4.5% and the inhibition at 280 µM is -3.2%.

With `COc1cc2c(cc1OC)C(Sc1ccc(SC)cc1)c1c(nc(N)c(C#N)c1N)O2` (stereo not shown) [Compound 6, 2,4-diamino-7,8-dimethoxy-5-((4-(methylthio)phenyl)thio)-5H-chromeno[2,3-b]pyridine-3-carbonitrile], the “dose-dependence of PMCT inhibition” value is on record as “dose-dependent inhibition”, the inhibition at 2.8 µM amounted to 9.4%, the inhibition at 28 µM was -45.9% and the inhibition at 140 µM came to 46.8%. Besides, the inhibition at 280 µM amounted to 70.2% and the “PMCT Inhibition” value is listed as 87.4%.

For the molecule `COc1ccc2c(c1)Oc1nc(N)c(C#N)c(N)c1C2Sc1ccc(O)cc1` (stereo not shown) [Compound 7, 2,4-Diamino-5-((4-hydroxyphenyl)thio)-8-methoxy-5H-chromeno[2,3-b]pyridine-3-carbonitrile], the “dose-dependence of PMCT inhibition” value was “dose-dependent inhibition”, the inhibition at 2.8 µM stood at 28%, the inhibition at 28 µM was -13.3% and the inhibition at 140 µM worked out at 42.5%. In addition, the inhibition at 280 µM amounted to 62.9% and the “PMCT Inhibition” value was 77.7%.

For the molecule `CCN(CC)c1ccc2c(c1)Oc1nc(N)c(C#N)c(N)c1C2Sc1ccc(SC)cc1` (stereo not shown) [Compound 8, 2,4-diamino-8-(diethylamino)-5-((4-(methylthio)phenyl)thio)-5H-chromeno[2,3-b]pyridine-3-carbonitrile], the inhibition at 2.8 µM is -41.5%, the inhibition at 28 µM is -1.5% and the inhibition at 280 µM is 58.4%.

Take `CSc1ccc(SC2c3ccc(C)cc3Oc3nc(N)c(C#N)c(N)c32)cc1` (stereo not shown) [Compound 9, 2,4-Diamino-8-methyl-5-((4-(methylthio)phenyl)thio)-5H-chromeno[2,3-b]pyridine-3-carbonitrile]: the inhibition at 2.8 µM is 35.7%, the inhibition at 28 µM came to 1.8% and the inhibition at 280 µM was 35.7%.
